Results taken from patent publication US20240368106A1, “HYDROXY AND ALKOXY COUMARINS AS MODULATORS OF POLRMT” (Pretzel Therapeutics, Inc., priority 2021, published 2024).

Target: POLRMT (Homo sapiens (Human), UniProt O00411)
Experiment: homogeneous TR-FRET assay of mitochondrial transcription (inhibition of POLRMT)
Type: biochemical
Settings: 7.5 nM POLRMT, 15 nM TFB2M, 30 nM TFAM, 0.5 nM DNA template, 500 μM NTPs, 37° C., 60 minutes
Description: The inhibitory activity of the compounds of the present invention against POLRMT were determined by assays based on Bergbrede, T., et al., “An adaptable high-throughput technology enabling the identification of specific transcription modulators,” SLAC Discov., 22, 378-386 (2017).
The ability of some compounds of the present invention to inhibit POLRMT were determined in a homogeneous TR-FRET Assay using high-throughput screening in a 384-well plate format. This method is used to monitor the activity of mitochondrial transcription through measurement of its product, a 407 bp long RNA transcript. Detection of the product is facilitated by hybridization of two DNA-oligonucleotide probes to specific and adjacent sequences within the RNA product sequence. Upon annealing of the probes, two fluorophores are coupled directly to an acceptor nucleotide probe (ATT0647, 5′), or introduced via a coupled streptavidin with a biotinylated donor nucleotide probe (Europium cryptate) that is brought into sufficient proximity to serve as a fluorescence-donor-acceptor pair. Thus, a FRET signal at 665 nm is generated upon excitation at 340 nm.
Proteins used as transcription factors (POLRMT: NP_005026.3, TFAM: NP_003192.1, TFB2M: NP_071761.1) are diluted from their stocks to working concentrations of 1 μM, 20 μM and 4 μM respectively, in a dilution buffer containing 20 mM Tris-HCl (pH 8.0), 200 mM NaCl, 10% (v/v) glycerol, 1 mM Dithiothreitol (DTT), 0.5 mM EDTA.
DNA template is a pUC18 plasmid with the mitochondrial light strand promotor sequence (1-477) cloned between HindIII and BamHI sites. The DNA template is restriction linearized proximal to the promotor 3′-end (pUC-LSP). The reaction mixture (10 uL) containing 7.5 nM POLRMT, 15 nM of TFB2M, 30 nM of TFAM, 0.5 nM of DNA template and 500 μM nucleotide triphosphate mix (NTPs) in a reaction buffer (containing 10 mM Tris-HCl (pH 7.5), 10 mM MgCl2, 40 mM NaCl, 10 mM DTT, 0.005% (w/v) Tween-20, 160 units/ml Rnase inhibitor and 0.1 mg/mL BSA) are dispensed to compounds in microplates, using a Thermo Multidrop® dispenser, and incubated at 37° C. in a VWR INCU-Line incubator for 60 minutes after mixing. No nucleotide triphosphate mix is added to negative control samples. Microplates with compounds to be tested in the assay are prepared from 10 mM compound stocks in 100% DMSO, equal amounts of DMSO without any compound are added to positive control and negative control samples.
During the incubation, a mix of the detection reagents is prepared in a buffer such that the enzymatic reaction is terminated due to chelating of Mg-ions and increased ionic strength, containing 50 mM Tris-HCl (pH 7.5), 700 mM NaCl, 20 mM EDTA, and 0.010% (w/v) Tween-20. Europium-streptavidin is pre-incubated with a 200-fold molar excess of a random sequence oligonucleotide to block unspecific binding of oligo, for two hours at ambient temperature in the dark. Afterwards, the blocked Europium-streptavidin is kept on ice until use.
At the end of the enzymatic reaction time, 5 μL detection oligo mix in the detection buffer is added, and assay plates are mixed and kept at ambient temperature for one hour, protected from light. The concentration of the Acceptor nucleotide oligo (e.g., ATTO647N-5′-[…]-3′) and Donor nucleotide oligo (e.g., bio-5′-AACACATCTCT(-bio)GCCAAACCCCA-bio-3′) in each assay well is 1 nM, and 3 nM, respectively.
After incubation with oligo mix, 5 μL of pre-blocked Europium-streptavidin reagent is dispensed to each assay well, assay plates are again mixed and kept at ambient temperature for one hour, protected from light.
The generated signal is measured with BMG Pherastar microtiter plate reader with a TRF light unit, using excitation at 340 nm, an integration time of 200 μs, and a delay time of 100 μs, before detection at 620 nm and 665 nm. The ratio of donor- and acceptor-fluorescence is used as a measure of the generated transcript product (i.e. enzymatic activity).

POLRMT, sequence (O00411 42-1230): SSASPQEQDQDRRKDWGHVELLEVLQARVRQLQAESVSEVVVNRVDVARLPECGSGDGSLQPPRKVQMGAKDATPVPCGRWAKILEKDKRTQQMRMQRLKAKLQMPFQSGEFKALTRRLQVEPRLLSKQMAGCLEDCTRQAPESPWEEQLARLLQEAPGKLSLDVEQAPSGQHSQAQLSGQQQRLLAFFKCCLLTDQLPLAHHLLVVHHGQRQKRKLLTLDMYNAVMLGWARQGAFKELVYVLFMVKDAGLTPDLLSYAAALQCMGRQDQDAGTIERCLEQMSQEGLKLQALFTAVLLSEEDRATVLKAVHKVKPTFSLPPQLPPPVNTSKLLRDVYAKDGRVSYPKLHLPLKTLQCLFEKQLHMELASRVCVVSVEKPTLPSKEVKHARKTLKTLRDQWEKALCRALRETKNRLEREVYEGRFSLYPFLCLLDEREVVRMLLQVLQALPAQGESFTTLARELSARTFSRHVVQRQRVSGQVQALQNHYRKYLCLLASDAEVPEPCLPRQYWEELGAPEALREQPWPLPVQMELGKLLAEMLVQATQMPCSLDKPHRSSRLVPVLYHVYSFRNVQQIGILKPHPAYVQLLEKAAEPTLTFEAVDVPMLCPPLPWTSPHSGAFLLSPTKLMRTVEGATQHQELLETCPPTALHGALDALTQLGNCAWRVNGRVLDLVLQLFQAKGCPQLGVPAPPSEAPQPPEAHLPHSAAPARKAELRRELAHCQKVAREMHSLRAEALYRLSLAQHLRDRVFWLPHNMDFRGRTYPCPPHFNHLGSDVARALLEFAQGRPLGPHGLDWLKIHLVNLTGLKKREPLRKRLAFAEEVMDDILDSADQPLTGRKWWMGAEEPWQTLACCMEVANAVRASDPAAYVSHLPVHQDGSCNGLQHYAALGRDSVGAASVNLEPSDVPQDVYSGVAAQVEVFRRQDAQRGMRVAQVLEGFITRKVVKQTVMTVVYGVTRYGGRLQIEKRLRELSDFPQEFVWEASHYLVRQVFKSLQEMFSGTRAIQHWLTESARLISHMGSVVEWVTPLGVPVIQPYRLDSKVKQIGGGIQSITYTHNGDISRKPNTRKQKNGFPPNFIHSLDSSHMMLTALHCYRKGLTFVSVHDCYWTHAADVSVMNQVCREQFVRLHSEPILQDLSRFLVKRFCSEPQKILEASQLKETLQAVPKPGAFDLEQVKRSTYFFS

SMILES	IC50 [nM]
CC(=O)N1CCCC(Oc2ccc3c(-c4ccc(F)cc4Cl)cc(=O)oc3c2)C1 (centres unmarked) [Example 57, 7-((1-acetylpiperidin-3-yl)oxy)-4-(2-chloro-4-fluorophenyl)-2H-chromen-2-one]	4000
Cc1cc(OC(C)C)cc2oc(=O)cc(-c3ccccc3)c12 [Example 23, 7-isopropoxy-5-methyl-4-phenyl-2H-chromen-2-one]	87000
CCOCC(Oc1ccc2c(-c3ccccc3C)cc(=O)oc2c1)C(N)=O (centres unmarked) [Example 100]	900
Cc1cc(O)cc2oc(=O)cc(-c3ccccc3)c12 [Example 22, 7-hydroxy-5-methyl-4-phenyl-2H-chromen-2-one]	34000
CNC(=O)C(CO)Oc1ccc2c(-c3ccccc3C)cc(=O)oc2c1 (single isomer, unassigned) [Example 98, 3-hydroxy-N-methyl-2-[4-(o-tolyl)-2-oxo-chromen-7-yl]oxy-propanamide]	> 100000
Cc1cc(OCC(C)C)cc2oc(=O)cc(-c3ccccc3)c12 [Example 24, 7-isobutoxy-5-methyl-4-phenyl-2H-chromen-2-one]	93000
CC(=O)N1CC[C@H](Oc2ccc3c(-c4ccccc4C)cc(=O)oc3c2)C1 [Example 61, (S)-7-((1-acetylpyrrolidin-3-yl)oxy)-4-(o-tolyl)-2H-chromen-2-one]	28000
COCC(Oc1ccc2c(-c3ccccc3Cl)cc(=O)oc2c1)C(=O)N(C)C (single isomer, unassigned) [Example 93, 2-((4-(2-chlorophenyl)-2-oxo-2H-chromen-7-yl)oxy)-3-methoxy-N,N-dimethylpropanamide]	18000
Cc1ccccc1-c1cc(=O)oc2cc(O[C@@H]3CCN(C)C3)ccc12 [Example 66, (R)-7-((1-methylpyrrolidin-3-yl)oxy)-4-(o-tolyl)-2H-chromen-2-one]	42000
CNC(=O)C(COC)Oc1ccc2c(-c3ccccc3Cl)cc(=O)oc2c1 (single isomer, unassigned) [Example 91, 2-((4-(2-chlorophenyl)-2-oxo-2H-chromen-7-yl)oxy)-3-methoxy-N-methylpropanamide]	14000
Cc1ccccc1-c1cc(=O)oc2cc(OCC3CCCCO3)ccc12 (single isomer, unassigned) [Example 40, 7-((tetrahydro-2H-pyran-2-yl)methoxy)-4-(o-tolyl)-2H-chromen-2-one]	3000
COCC(Oc1ccc2c(-c3ccccc3Cl)cc(=O)oc2c1)C(N)=O (single isomer, unassigned) [Example 95, 2-((4-(2-chlorophenyl)-2-oxo-2H-chromen-7-yl)oxy)-3-methoxypropanamide]	14000
COCC(Oc1ccc2c(-c3ccc(F)cc3Cl)cc(=O)oc2c1)C(=O)N(C)C (single isomer, unassigned) [Example 86, 2-((4-(2-chloro-4-fluorophenyl)-2-oxo-2H-chromen-7-yl)oxy)-3-methoxy-N,N-dimethylpropanamide]	> 100000
COC[C@H](Oc1ccc2c(-c3ccccc3C)cc(=O)oc2c1)C(=O)N(C)C [Example 72, (S)-3-methoxy-N,N-dimethyl-2-((2-oxo-4-(o-tolyl)-2H-chromen-7-yl)oxy)propenamide]	10000
COc1ccc2c(-c3ccc(F)cc3Cl)cc(=O)oc2c1 [Example 21, 4-(2-chloro-4-fluorophenyl)-7-methoxy-2H-chromen-2-one]	4000
CCNC(=O)C(COC)Oc1ccc2c(-c3ccccc3C)cc(=O)oc2c1 (single isomer, unassigned) [Example 80, N-ethyl-3-methoxy-2-((2-oxo-4-(o-tolyl)-2H-chromen-7-yl)oxy)propanamide]	15000

More lines, now with the values ahead:

IC50 [nM]	SMILES
800	COCC(Oc1ccc2c(-c3ccccc3C)cc(=O)oc2c1)C(=O)O (centres unmarked) [Example 65, 3-methoxy-2-((2-oxo-4-(o-tolyl)-2H-chromen-7-yl)oxy)propanoic acid]
600	COCC(C)Oc1ccc2c(-c3ccccc3C)cc(=O)oc2c1 (single isomer, unassigned) [Example 27, 7-((1-methoxypropan-2-yl)oxy)-4-(o-tolyl)-2H-chromen-2-one]
600	Cc1ccccc1-c1cc(=O)oc2cc(Oc3ccccc3)ccc12 [Example 06, 7-phenoxy-4-(o-tolyl)-2H-chromen-2-one]
200	CCCOc1ccc2c(-c3ccc(F)cc3Cl)cc(=O)oc2c1 [Example 31, 4-(2-chloro-4-fluorophenyl)-7-propoxy-2H-chromen-2-one]
300	COCC(C)Oc1ccc2c(-c3ccccc3C)cc(=O)oc2c1 (single isomer, unassigned) [Example 26, 7-((1-methoxypropan-2-yl)oxy)-4-(o-tolyl)-2H-chromen-2-one]
500	COCC(C)Oc1cc(C)c2c(-c3ccccc3C)cc(=O)oc2c1 (single isomer, unassigned) [Example 60, 7-((1-methoxypropan-2-yl)oxy)-5-methyl-4-(o-tolyl)-2H-chromen-2-one]
2000	COc1ccc2c(-c3ccccc3C)cc(=O)oc2c1 [Example 04, 7-methoxy-4-(o-tolyl)-2H-chromen-2-one]
1000	Cc1ccccc1-c1cc(=O)oc2cc(OC(CO)C(=O)O)ccc12 (centres unmarked) [Example 102, 3-hydroxy-2-((2-oxo-4-(o-tolyl)-2H-chromen-7-yl)oxy)propanoic acid]
400	COC[C@@H](Oc1ccc2c(-c3ccccc3C)cc(=O)oc2c1)C(=O)O [Example 101, (R)-3-methoxy-2-((2-oxo-4-(o-tolyl)-2H-chromen-7-yl)oxy)propanoic acid]
300	CCC(COC)Oc1ccc2c(-c3ccccc3C)cc(=O)oc2c1 (single isomer, unassigned) [Example 46, 7-((1-methoxybutan-2-yl)oxy)-4-(o-tolyl)-2H-chromen-2-one]
2000	Cc1cc(O[C@H](C)C(=O)N(C)C)cc2oc(=O)cc(-c3ccc(F)cc3)c12 [Example 20, (R)-2-((4-(4-fluorophenyl)-5-methyl-2-oxo-2H-chromen-7-yl)oxy)-N,N-dimethylpropanamide]
400	CNC(=O)C(COC)Oc1ccc2c(-c3ccccc3Cl)cc(=O)oc2c1 (single isomer, unassigned) [Example 92, 2-((4-(2-chlorophenyl)-2-oxo-2H-chromen-7-yl)oxy)-3-methoxy-N-methylpropanamide]
400	CCCOc1ccc2c(-c3csc(C)c3C)cc(=O)oc2c1 [Example 51, 4-(4,5-dimethylthiophen-3-yl)-7-propoxy-2H-chromen-2-one]
500	C[C@@H](Oc1ccc2c(-c3ccc(F)cc3Cl)cc(=O)oc2c1)C(=O)N1CCS(=O)(=O)CC1 [Example 110, (R)-4-(2-chloro-4-fluorophenyl)-7-((1-(1,1-dioxidothiomorpholino)-1-oxopropan-2-yl)oxy)-2H-chromen-2-one]
40	COC(=O)C(COC(F)(F)F)Oc1ccc2c(-c3ccccc3C)cc(=O)oc2c1 (centres unmarked) [Example 105, methyl 2-((2-oxo-4-(o-tolyl)-2H-chromen-7-yl)oxy)-3-(trifluoromethoxy)propanoate]
1000	Cc1ccccc1-c1cc(=O)oc2cc(OC(C)C#N)ccc12 (single isomer, unassigned) [Example 43, 2-((2-oxo-4-(o-tolyl)-2H-chromen-7-yl)oxy)propanenitrile]
